Measurements published in US11834453B2, “Substituted pyrimido[5,4-d]pyrimidines as HER2 inhibitors” (Array BioPharma Inc., priority 2020, dated 2023).

What was measured:
EGFR = EGFR (Homo sapiens (Human), UniProt P00533); assay: ErbB enzyme assay (CisBio HTRF KinEASE-TK), Assay 3; type: biochemical
Procedure, shortened: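 IC50 was taken where a 4-parameter logistic fit crossed 50 percent of control (DMSO 100, pre-quenched 0), read by ratiometric HTRF. Reactions ran 30 min at 22 °C with 1 mM ATP and 250 nM TK-substrate biotin in pH 7.4 HEPES buffer with MgCl2, Triton X-100 and 2% DMSO.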

[1] = target: ErbB2 insYVMA (HER2-YVMA, SEQ ID NO: 2) (Homo sapiens, UniProt P04626, INS775YVMA/P1170A); assay: biochemical; conditions: ErbB2 insYVMA enzyme assay; read-out: Assay 1 IC50
MDR1 (P-gp) = MDR1 (P-gp) (Homo sapiens (Human), UniProt P08183); assay: MDR1 transfected LLC-PK1 permeability/efflux, Assay 6; conditions: efflux ratio Papp(B-A)/Papp(A-B), MDR1 transfected LLC-PK1; for efflux ratio at 2 h, 1 μM: pig, LLC-PK1, Assay 6 Pe Ratio
ErbB2 WT = ErbB2 WT (Homo sapiens (Human), UniProt P04626); assay: ErbB enzyme assay (CisBio HTRF KinEASE-TK), Assay 2; type: biochemical
Procedure, shortened: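 Readout is HTRF KinEASE-TK, using Sa-XL665 and cryptate antibody for 1 h at 22 °C, as percent of control between DMSO-only (100) and pre-quenched (0) reactions. The kinase reaction runs 30 min at 22 °C with 1 mM ATP and 250 nM biotinylated TK substrate, in HEPES pH 7.4 with MgCl2 and 2% DMSO.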

[2] = target: ErbB2 with Exon 20 YVMA insertion (HER2-YVMA) (Homo sapiens (Human), UniProt P04626, INS775YVMA); assay: Cellular phosphorylation assay, constitutive ErbB2 phosphorylation (Y1196) in engineered NIH 3T3 cells, Assay 4; type: cell-based
Procedure, shortened: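 In-cell Western in NIH 3T3 cells carrying ErbB2 exon 20 YVMA insertion, with no ligand stimulation. One hour compound exposure at 37 °C before fixation and anti-pY1196 plus GAPDH staining with dual-wavelength fluorescence. IC50 derived after GAPDH normalization.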

BCRP = BCRP (Homo sapiens (Human), UniProt Q9UNQ0); assay: BCRP transfected MDCKII canine Mdr1 knockout permeability/efflux, Assay 9; conditions: efflux ratio Papp(B-A)/Papp(A-B), BCRP transfected MDCKII canine Mdr1 knockout; for efflux ratio at 2 h, 1 μM: dog, Assay 9 Pe Ratio
EGFR wild type (EGFR WT) = EGFR wild type (EGFR WT) (Homo sapiens (Human), UniProt P00533); assay: Cellular phosphorylation assay, EGF-stimulated EGFR phosphorylation in engineered NIH 3T3 cells, Phospho-EGFR DuoSet IC ELISA, Assay 5; type: cell-based
Procedure, shortened: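 Phospho-EGFR ELISA on lysates of engineered NIH 3T3 EGFR WT cells, IC50 derived from concentration curves. Cells plated at 20,000/well overnight, given compound dilutions 1 h at 37 °C, then rEGF 100 ng/ml for a further 10 min before lysis.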

Sequence of ErbB2 insYVMA (HER2-YVMA, SEQ ID NO: 2) (P04626 with tags, fused parts or gaps INS775YVMA/P1170A limits assumed): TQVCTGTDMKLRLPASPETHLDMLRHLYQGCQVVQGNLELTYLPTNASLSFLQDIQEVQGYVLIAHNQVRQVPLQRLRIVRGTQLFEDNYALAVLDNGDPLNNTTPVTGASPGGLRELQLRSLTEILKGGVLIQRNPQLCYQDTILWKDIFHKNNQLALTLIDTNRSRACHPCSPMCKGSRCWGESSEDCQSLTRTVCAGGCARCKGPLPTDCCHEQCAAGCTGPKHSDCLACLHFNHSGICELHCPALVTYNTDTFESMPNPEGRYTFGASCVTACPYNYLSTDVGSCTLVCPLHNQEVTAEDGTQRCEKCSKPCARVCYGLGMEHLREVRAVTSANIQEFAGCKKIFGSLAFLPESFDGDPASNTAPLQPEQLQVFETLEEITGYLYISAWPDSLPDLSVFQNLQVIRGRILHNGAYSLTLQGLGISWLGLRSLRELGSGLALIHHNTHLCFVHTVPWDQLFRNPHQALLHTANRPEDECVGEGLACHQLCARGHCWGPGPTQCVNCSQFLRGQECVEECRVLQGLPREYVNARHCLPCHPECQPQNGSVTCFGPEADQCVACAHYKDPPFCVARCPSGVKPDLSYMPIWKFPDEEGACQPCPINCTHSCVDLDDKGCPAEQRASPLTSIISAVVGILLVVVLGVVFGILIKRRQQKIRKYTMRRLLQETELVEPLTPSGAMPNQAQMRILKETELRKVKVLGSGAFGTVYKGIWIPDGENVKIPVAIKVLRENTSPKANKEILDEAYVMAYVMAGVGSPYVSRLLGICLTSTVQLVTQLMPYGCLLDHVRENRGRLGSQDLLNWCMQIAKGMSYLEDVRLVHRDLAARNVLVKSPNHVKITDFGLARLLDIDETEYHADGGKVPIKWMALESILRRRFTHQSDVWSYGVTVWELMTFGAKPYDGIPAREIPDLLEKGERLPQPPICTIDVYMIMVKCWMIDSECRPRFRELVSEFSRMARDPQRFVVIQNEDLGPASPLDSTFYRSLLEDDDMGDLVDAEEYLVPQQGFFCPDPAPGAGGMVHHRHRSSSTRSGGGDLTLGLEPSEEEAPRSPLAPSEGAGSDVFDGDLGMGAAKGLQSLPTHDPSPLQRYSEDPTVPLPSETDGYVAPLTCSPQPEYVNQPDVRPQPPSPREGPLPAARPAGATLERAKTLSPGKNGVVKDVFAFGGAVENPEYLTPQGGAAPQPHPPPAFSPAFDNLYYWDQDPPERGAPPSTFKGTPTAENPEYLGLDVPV
Sequence of ErbB2 with Exon 20 YVMA insertion (HER2-YVMA) (P04626 other isoform, or with tags, fused parts or gaps ins YVMA behind 775): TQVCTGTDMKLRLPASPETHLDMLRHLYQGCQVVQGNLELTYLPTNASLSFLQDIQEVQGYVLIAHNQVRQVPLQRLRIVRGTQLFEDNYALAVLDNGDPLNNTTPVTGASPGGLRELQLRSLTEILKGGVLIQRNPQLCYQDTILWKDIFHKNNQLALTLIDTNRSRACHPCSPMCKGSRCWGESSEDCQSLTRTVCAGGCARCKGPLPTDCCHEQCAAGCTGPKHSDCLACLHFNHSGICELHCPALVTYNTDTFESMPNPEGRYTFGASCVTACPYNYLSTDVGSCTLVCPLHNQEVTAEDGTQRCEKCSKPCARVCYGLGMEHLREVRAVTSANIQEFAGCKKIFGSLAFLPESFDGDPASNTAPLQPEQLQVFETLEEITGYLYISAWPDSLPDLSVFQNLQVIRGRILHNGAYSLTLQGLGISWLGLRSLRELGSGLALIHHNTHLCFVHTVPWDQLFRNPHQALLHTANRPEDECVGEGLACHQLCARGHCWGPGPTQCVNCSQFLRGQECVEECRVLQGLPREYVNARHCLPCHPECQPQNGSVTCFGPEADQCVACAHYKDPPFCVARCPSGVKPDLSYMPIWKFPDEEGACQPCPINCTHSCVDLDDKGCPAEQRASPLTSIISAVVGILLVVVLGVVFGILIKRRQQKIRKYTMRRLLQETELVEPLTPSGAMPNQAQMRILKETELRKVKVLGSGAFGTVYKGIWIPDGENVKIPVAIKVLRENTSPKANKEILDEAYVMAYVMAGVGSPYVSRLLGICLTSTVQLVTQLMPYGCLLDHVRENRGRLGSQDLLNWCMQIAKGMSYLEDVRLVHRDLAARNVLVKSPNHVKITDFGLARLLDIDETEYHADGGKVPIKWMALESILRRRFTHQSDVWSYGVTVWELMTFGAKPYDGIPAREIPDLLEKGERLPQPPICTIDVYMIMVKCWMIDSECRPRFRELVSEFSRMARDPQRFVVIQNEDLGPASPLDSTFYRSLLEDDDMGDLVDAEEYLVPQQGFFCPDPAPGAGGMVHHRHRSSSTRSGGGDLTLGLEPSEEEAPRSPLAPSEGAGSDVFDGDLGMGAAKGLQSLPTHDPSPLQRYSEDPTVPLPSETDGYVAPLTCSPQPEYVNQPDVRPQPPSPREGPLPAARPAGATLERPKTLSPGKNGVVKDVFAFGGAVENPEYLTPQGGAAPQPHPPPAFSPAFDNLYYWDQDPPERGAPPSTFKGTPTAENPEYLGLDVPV
Sequence of MDR1 (P-gp) (P08183 whole entry): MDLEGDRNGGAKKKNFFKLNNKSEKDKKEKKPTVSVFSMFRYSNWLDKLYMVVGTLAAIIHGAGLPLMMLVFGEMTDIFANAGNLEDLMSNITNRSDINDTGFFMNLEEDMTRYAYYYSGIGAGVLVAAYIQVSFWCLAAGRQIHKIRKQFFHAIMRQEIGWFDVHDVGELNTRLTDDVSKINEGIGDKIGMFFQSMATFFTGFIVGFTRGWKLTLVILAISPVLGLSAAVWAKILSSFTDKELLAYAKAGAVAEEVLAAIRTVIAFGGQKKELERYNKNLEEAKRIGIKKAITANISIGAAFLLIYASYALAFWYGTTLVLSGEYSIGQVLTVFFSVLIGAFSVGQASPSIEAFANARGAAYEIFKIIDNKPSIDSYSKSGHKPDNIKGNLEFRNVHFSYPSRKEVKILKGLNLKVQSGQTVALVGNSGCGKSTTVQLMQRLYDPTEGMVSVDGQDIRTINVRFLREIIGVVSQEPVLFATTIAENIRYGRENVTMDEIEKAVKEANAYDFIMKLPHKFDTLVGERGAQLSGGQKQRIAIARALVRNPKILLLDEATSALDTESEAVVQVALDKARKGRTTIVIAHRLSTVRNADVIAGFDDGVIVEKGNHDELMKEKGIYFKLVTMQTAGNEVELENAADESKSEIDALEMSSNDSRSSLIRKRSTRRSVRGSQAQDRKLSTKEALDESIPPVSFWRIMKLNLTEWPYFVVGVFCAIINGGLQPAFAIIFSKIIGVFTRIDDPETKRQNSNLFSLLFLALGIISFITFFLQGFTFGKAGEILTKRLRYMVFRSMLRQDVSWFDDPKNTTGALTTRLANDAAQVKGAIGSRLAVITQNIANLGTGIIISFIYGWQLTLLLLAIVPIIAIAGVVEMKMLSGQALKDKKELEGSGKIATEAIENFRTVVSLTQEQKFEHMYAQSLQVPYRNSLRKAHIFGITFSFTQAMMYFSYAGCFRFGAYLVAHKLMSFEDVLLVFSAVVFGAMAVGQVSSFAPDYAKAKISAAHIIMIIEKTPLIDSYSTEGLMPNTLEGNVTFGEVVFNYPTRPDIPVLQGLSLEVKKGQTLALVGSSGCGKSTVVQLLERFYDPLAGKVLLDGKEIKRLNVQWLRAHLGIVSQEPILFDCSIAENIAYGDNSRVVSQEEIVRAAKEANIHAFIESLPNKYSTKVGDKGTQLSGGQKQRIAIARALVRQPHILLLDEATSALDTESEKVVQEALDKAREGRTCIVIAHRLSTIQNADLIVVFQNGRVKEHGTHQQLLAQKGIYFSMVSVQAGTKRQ
Sequence of BCRP (Q9UNQ0 whole entry): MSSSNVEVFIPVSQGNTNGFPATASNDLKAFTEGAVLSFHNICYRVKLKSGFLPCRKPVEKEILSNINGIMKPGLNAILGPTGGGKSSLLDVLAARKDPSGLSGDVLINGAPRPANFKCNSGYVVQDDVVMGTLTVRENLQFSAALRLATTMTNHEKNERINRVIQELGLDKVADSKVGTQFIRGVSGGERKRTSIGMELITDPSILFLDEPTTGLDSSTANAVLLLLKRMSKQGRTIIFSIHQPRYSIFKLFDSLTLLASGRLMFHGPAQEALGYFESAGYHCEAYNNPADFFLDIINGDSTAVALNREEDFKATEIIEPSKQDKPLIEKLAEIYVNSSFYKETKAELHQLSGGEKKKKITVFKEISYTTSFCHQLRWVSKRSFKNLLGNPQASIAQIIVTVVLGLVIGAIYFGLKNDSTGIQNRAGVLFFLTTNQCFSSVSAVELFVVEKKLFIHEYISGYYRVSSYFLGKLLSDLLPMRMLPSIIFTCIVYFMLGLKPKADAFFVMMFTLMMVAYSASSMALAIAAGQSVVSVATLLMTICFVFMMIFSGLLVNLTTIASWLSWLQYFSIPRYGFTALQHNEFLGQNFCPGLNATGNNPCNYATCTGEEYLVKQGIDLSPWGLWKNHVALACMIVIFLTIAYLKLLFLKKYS

SMILES	IC50 (EGFR)	IC50 [1]	efflux ratio at 2 h, 1 μM (MDR1 (P-gp))	IC50 (ErbB2 WT)	IC50 [2]	efflux ratio at 2 h, 1 μM (BCRP)	IC50 (EGFR wild type (EGFR WT))	Assay 6 Pe Ratio (MDR1 (P-gp))	Assay 9 Pe Ratio (BCRP)
Cc1cc(Nc2ncnc3cnc(N4CCO[C@H]5C[C@H]54)nc23)ccc1Oc1ccc2c(c1)ncn2C (single isomer, unassigned) [Example 60a]	8280 nM	18.4 nM	1.8	28.9 nM	16 nM	1.2	≥ 5000 nM	–	–
Cc1cc(Nc2ncnc3cnc(N4CCO[C@H]5C[C@H]54)nc23)ccc1Oc1ccc2c(c1)ncn2C (single isomer, unassigned) [Example 60b]	5680 nM	16.1 nM	–	18.7 nM	17.9 nM	–	≥ 5000 nM	1.9	1.4
Cc1cc(Nc2ncnc3cnc(N4CC5C6CCC(O6)C5C4)nc23)ccc1Oc1ccc2c(c1)ncn2C (stereo not drawn) [Example 16, N-(3-methyl-4-((1-methyl-1H-benzo[d]imidazol-5-yl)oxy)phenyl)-6-(octahydro-2H-4,7-epoxyisoindol-2-yl)pyrimido[5,4-d]pyrimidin-4-amine]	≥ 10000 nM	26 nM	1.2	–	15.2 nM	1.8	≥ 5000 nM	–	–
Cc1cc(Nc2ncnc3cnc(N4C[C@@H](C)O[C@@H](C)C4)nc23)ccc1Oc1ccc2c(c1)ncn2C [Example 25, 6-((2S,6R)-2,6-dimethylmorpholino)-N-(3-methyl-4-((1-methyl-1H-benzo[d]imidazol-5-yl)oxy)phenyl)pyrimido[5,4-d]pyrimidin-4-amine]	≥ 10000 nM	172 nM	1.7	329 nM	53.4 nM	1.4	–	–	–
Cc1cc(Nc2ncnc3cnc(N(C)C4CC4)nc23)ccc1Oc1ccc2c(c1)ncn2C [Example 31, N2-cyclopropyl-N2-methyl-N8-(3-methyl-4-((1-methyl-1H-benzo[d]imidazol-5-yl)oxy)phenyl)pyrimido[5,4-d]pyrimidine-2,8-diamine]	≥ 10000 nM	117 nM	1.3	158 nM	23.3 nM	1.4	≥ 5000 nM	–	–
Cc1cc(Nc2ncnc3cnc(N4CCO[C@@H]5C[C@@H]54)nc23)ccc1Oc1ccc2c(c1)ncn2C [Example 199, 6-((1R,6S)-2-oxa-5-azabicyclo[4.1.0]heptan-5-yl)-N-(3-methyl-4-((1-methyl-1H-benzo[d]imidazol-5-yl)oxy)phenyl)pyrimido[5,4-d]pyrimidin-4-amine]	5680 nM	16.1 nM	1.9	–	17.9 nM	1.4	≥ 5000 nM	–	–
Cc1cc(Nc2ncnc3cnc(NCC(C)(C)C#N)nc23)ccc1Oc1ccc2c(c1)ncn2C [Example 200, 2,2-dimethyl-3-((8-((3-methyl-4-((1-methyl-1H-benzo[d]imidazol-5-yl)oxy)phenyl)amino)pyrimido[5,4-d]pyrimidin-2-yl)amino)propanenitrile]	≥ 10000 nM	18.6 nM	8.1	52.6 nM	14.9 nM	–	4520 nM	–	–
Cc1cc(Nc2ncnc3cnc(N)nc23)ccc1Oc1ccc2c(c1)ncn2C [Example 206, N8-(3-methyl-4-((1-methyl-1H-benzo[d]imidazol-5-yl)oxy)phenyl)pyrimido[5,4-d]pyrimidine-2,8-diamine bis(2,2,2-trifluoroacetate)]	≥ 10000 nM	12.6 nM	3.3	40.8 nM	24.8 nM	–	≥ 5000 nM	–	–
Cc1cc(Nc2ncnc3cnc(N4CCC(C)(O)CC4)nc23)ccc1Oc1ccc2c(c1)ncn2C [Example 209, 4-methyl-1-(8-((3-methyl-4-((1-methyl-1H-benzo[d]imidazol-5-yl)oxy)phenyl)amino)pyrimido[5,4-d]pyrimidin-2-yl)piperidin-4-ol]	9530 nM	29.2 nM	3.3	57.9 nM	11.7 nM	–	≥ 5000 nM	–	–
Cc1cc(Nc2ncnc3cnc(-c4ncco4)nc23)ccc1Oc1ccc2c(c1)ncn2C [Example 226]	≥ 10000 nM	92.7 nM	3.2	128 nM	65.4 nM	–	≥ 5000 nM	–	–
Cc1cc(Nc2ncnc3cnc(N4CCCC45COC5)nc23)ccc1Oc1ccc2c(c1)ncn2C [Example 230]	8560 nM	25.8 nM	2.5	29.2 nM	15.7 nM	–	≥ 5000 nM	–	–
Cc1cc(Nc2ncnc3cnc(N4CC(CS(C)(=O)=O)C4)nc23)ccc1Oc1ccc2c(c1)ncn2C [Example 232]	6410 nM	15.3 nM	31.3	12.4 nM	39.6 nM	–	≥ 5000 nM	–	–
Cc1cc(Nc2ncnc3cnc(-c4cscn4)nc23)ccc1Oc1ccc2c(c1)ncn2C [Example 235]	≥ 10000 nM	74.5 nM	2.9	54.1 nM	5.6 nM	–	≥ 5000 nM	–	–
Cc1cc(Nc2ncnc3cnc(NCC(F)F)nc23)ccc1Oc1ccc2c(c1)ncn2C [Example 251]	1800 nM	11.7 nM	2.3	21.2 nM	6.6 nM	–	≥ 5000 nM	–	–
Cc1cc(Nc2ncnc3cnc(N4C[C@@H]5CCCN5C4=O)nc23)ccc1Oc1ccc2c(c1)ncn2C [Example 254]	≥ 10000 nM	53.2 nM	9.9	114 nM	44 nM	–	≥ 5000 nM	–	–
Cc1cc(Nc2ncnc3cnc(NC4COC4)nc23)ccc1Oc1ccc2c(c1)ncn2C [Example 259]	≥ 10000 nM	29.7 nM	8.8	45.3 nM	19.6 nM	–	≥ 5000 nM	–	–
Cc1cc(Nc2ncnc3cnc(N4CCC(C)S4(=O)=O)nc23)ccc1Oc1ccc2c(c1)ncn2C (stereo not drawn) [Example 267]	3950 nM	34.3 nM	6	33.4 nM	4.1 nM	–	≥ 5000 nM	–	–
CCNc1ncc2ncnc(Nc3ccc(Oc4ccc5c(ccn5C)c4)c(C)c3)c2n1 [Example 269]	2400 nM	12.1 nM	2.4	16.7 nM	20.7 nM	–	≥ 5000 nM	–	–
Cc1cc(Nc2ncnc3cnc(N[C@@H]4CCOC4)nc23)ccc1Oc1ccc2c(c1)ncn2C [Example 275]	1650 nM	13.1 nM	6	16.5 nM	18 nM	–	≥ 5000 nM	–	–
Cc1cc(Nc2ncnc3cnc(N[C@H]4CN(C)C[C@H]4F)nc23)ccc1Oc1ccc2c(c1)ncn2C [Example 279]	4090 nM	25 nM	16.6	50.6 nM	1.2 nM	–	≥ 5000 nM	–	–
Cc1cc(Nc2ncnc3cnc(N4CCN(C)[C@@H](C)C4)nc23)ccc1Oc1ccc2c(c1)ncn2C [Example 280]	≥ 10000 nM	38.2 nM	4	78.2 nM	14.7 nM	–	≥ 5000 nM	–	–
Cc1cc(Nc2ncnc3cnc(N4CCN(C)[C@H](C)C4)nc23)ccc1Oc1ccc2c(c1)ncn2C [Example 281]	≥ 10000 nM	23.8 nM	2.1	84.2 nM	26.6 nM	–	≥ 5000 nM	–	–
Cc1cc(Nc2ncnc3cnc(O[C@H]4CCNC[C@H]4F)nc23)ccc1Oc1ccc2c(c1)ncn2C [Example 284]	≥ 10000 nM	75.6 nM	95.4	681 nM	53.4 nM	–	≥ 5000 nM	–	–
Cc1cc(Nc2ncnc3cnc(O[C@H]4CCNC[C@@H]4F)nc23)ccc1Oc1ccc2c(c1)ncn2C [Example 285]	≥ 10000 nM	83.9 nM	72.1	787 nM	53.2 nM	–	≥ 5000 nM	–	–
